Assay results as given in patent US8865894B2, “Oxazolidin-2-one compounds and uses thereof” (Novartis AG, priority 2012, dated 2014).
Like-named read-outs stand apart in the source and are kept apart here.

Assays:
A2058 cells = test: Cell cycle G2/M arrest Cytospin assay to detect tubulin binding (off-target); format: cell-based; parameters: key: 0=no condensed DNA observed (indicating no off target activity); 1=(indicating weak off target activity); 2=(indicating medium off target activity); 3=large amount of condensed DNA observed (indicating strong off-target activity); details: 5 μM test item, 24 hours
Description: The off-target effect (evidence of tubulin binding) was measured as follows.
Cell cycle G2/M arrest Cytospin assay to detect tubulin binding (off-target) binding activities of MAPP derivatives: 5×10^5 cells A2058 cells were plated in 6-well cluster, with 2 mL of DMEM (high Glucose containing 1% sodium pyruvate, 1% glutamin and 10% FCS). 18 hours later, the test items were added at a concentration of 5 μM (spiking 1 μL of a 10 mM solution of the test item). 24 hours later, the cells were trypsinized and transferred into a 15 mL conical tube. Cells are then pelleted by centrifugation, and resuspended with PBS/0 (containing 10% FCS). Cells are counted with a CASY counter, and each samples equilibrated to 1×10^6 cells/mL. […] The staining was visually assessed for the presence of condensed DNA and given a score where 0=no condensed DNA observed (indicating no off target activity), 1=(indicating weak off target activity), 2=(indicating medium off target activity), 3=large amount of condensed DNA observed (indicating strong off-target activity).

human PI3Kα = biological target: T1, human PI3Kα (Homo sapiens, UniProt P42336); test: Biochemical PI3Kalpha (KinaseGlo luminescent kinase assay)
T1 construct: made in house
Description: Test compounds were dissolved in DMSO (10 mM) and transferred into 1.4 mL flat bottom or V-shaped Matrix tubes carrying a unique 2D matrix chip by individual Novartis compound hubs. The numbers of these chips were distinctively linked to Novartis Pharma Numbers. The stock solutions were stored at −20° C. if not used immediately. For the test procedure the vials were defrosted and identified by a scanner whereby a working sheet was generated that guided the subsequent working steps.
Compounds were either manually diluted in DMSO for individual experiments (96 wells enabling 10 cpds at 8 (single points) concentrations) as described in or prepared as described below if tested for profiling in 384-wells. This format enabled the assay of maximally 40 individual test compounds at 8 concentrations (single points) including 4 reference compounds. The dilution protocol included the production of “pre-dilution plates”, “master plates” and “assay plates”.
96 polypropylene well plates were used as pre-dilution plates. A total of 4 pre-dilution plates were prepared including 10 test compounds each on the plate positions A1-A10, one standard compound at A11 and one DMSO control at A12. Programs have been written to run these pipetting steps on the HamiltonSTAR robots.
Identical “assay plates” were then prepared by pipetting 50 nL each of compound dilutions of the “master plates” into 384-well “assay plates”. The compounds were mixed with 4.5 μL of assays components plus 4.5 μL enzyme corresponding to a 1:181 dilution enabling the final concentration of 10, 3.0, 1.0, 0.3, 0.1, 0.03, 0.01 and 0.003 μM, respectively. The preparation of the “master plates” was handled by the Matrix PlateMate Plus robot and replication of “assay plates” by the HummingBird robot.
Catalytically active human PI3Kα, PI3Kβ, PI3Kδ, and mTOR were cloned, expressed and purified as described (Maira S M, Stauffer F, Brueggen J, Furet P, Schnell C, Fritsch C, Brachmann S, Chène P, de Pover A, Schoemaker K, Fabbro D, Gabriel D, Simonen M, Murphy L, Finan P, Sellers W, García-Echeverría C (2008), Mol Cancer Ther. 7:1851-63 and Maira S M, Pecchi S, Brueggen J, Huh K, Schnell C, Fritsch C, Nagel T, Wiesmann M, Brachmann S, Dorsch M, Chène P, Schoemaker K, De Pover A, Menezes D, Fabbro D, Sellers W, García-Echeverría C, Voliva C F (2011), Mol. Cancer Ther. accepted).
The luminescence-based ATP detection reagent KinaseGlo was obtained from Promega, (Cat. No. V6714, Lot No. 236161) through Catalys, Wallisellen, Switzerland. (L-alpha-phosphatidylinositol (PI), Liver, Bovine) were obtained from Avanti Polar Lipid (Cat. No. 840042C, Lot#LPI-274), Phosphatidylinositol-4,5-bisphosphate (PIP(4,5)2 (Avanti, Cat. No. 840046×) or L-α-phosphatidylinositol (PI) was obtained from Avanti Polar Lipid (Cat. No. 840042C, Lot#LPI-274). L-α-Phosphatidylserine (PS) was from Avanti Polar Lipid (Cat. No. 840032C), n-OctylGlucoside Avanti Polar Lipid (Cat. No. 10634425001). Luminescence is a well established readout to determine ATP concentrations and can thus be used to follow the activity of many kinases regardless of their substrate. The Kinase Glo Luminescent Kinase Assay (Promega, Madison/Wis., USA) is a homogeneous HTS method of measuring kinase activity by quantifying the amount of ATP remaining in solution following a kinase reaction.
50 nL of compound dilutions were dispensed onto black 384-well low volume Non Binding Styrene (NBS) plates (Costar Cat. No. NBS#3676) as described in section 8.2. L-α-phosphatidylinositol (PI), provided as 10 mg/ml solution in methanol, was transferred into a glass tube and dried under nitrogen beam. It was then resuspended in 3% OctylGlucoside by vortexing and stored at 4° C. 5 μL of a mix of PI/OG with the PI3Ka and Pi3Kb subtypes were added. Kinase reactions were started by addition of 5 μl of ATP-mix containing in a final volume 10 μL 10 mM TRIS-HCl pH 7.5, 3 mM MgCl2, 50 mM NaCl, 0.05% CHAPS, 1 mM DTT and 1 μM ATP, and occurred at room temperature.

[1] = biochemical, 1 μM ATP, mean of n measurements
[2] = biochemical, 1 μM ATP, mean of n measurements, read-out: PI3Ka/ IC50

T1 sequence (P42336 with tags, fused parts or gaps limits assumed): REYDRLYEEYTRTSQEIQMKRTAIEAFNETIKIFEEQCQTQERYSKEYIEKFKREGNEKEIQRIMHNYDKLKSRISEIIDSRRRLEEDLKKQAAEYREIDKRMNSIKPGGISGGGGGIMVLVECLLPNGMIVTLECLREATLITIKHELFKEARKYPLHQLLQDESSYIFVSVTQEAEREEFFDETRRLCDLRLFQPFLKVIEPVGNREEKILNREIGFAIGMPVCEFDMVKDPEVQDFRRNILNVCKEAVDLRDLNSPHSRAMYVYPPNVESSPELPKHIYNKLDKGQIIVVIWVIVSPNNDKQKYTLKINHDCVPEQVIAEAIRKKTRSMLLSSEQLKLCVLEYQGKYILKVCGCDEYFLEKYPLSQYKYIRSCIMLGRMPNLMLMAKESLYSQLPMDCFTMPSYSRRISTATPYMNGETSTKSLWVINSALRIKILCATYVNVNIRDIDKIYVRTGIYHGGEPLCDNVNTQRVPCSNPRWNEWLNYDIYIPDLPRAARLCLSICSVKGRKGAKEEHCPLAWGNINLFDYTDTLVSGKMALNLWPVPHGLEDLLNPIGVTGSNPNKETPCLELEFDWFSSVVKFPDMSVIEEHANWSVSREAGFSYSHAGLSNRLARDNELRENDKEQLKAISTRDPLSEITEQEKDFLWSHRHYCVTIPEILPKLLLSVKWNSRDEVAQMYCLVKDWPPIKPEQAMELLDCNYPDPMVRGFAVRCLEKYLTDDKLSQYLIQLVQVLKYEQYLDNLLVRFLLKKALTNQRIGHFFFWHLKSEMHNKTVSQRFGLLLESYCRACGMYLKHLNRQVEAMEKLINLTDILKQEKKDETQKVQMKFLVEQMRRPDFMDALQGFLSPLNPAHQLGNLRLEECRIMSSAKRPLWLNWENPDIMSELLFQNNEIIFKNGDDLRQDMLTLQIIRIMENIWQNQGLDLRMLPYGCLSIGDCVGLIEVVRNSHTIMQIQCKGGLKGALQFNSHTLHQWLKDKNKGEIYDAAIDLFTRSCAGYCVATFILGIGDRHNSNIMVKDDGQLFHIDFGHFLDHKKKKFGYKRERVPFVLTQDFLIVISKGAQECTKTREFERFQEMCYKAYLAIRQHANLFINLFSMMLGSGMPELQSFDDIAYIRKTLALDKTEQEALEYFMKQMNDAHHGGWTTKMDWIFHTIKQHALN

| SMILES | Score (condensed DNA, G2/M arrest; off-target tubulin binding) (A2058 cells) | PI3Ka/ IC50 (human PI3Kα; [1]) [umol I-1] | IC50 (human PI3Kα; [2]) [nM] | IC50 (human PI3Kα; a different, separate measurement, read-out: PI3Ka IC50, different, separate measurement (footnote)) [nM] |
| --- | --- | --- | --- | --- |
| C[C@@H](O)C[C@H]1OC(=O)N(c2cc(-c3cnc(N)nc3C(F)(F)F)nc(N3CCOCC3)n2)[C@H]1C (single isomer, unassigned) [Example 24] | 0 | – | 5 | – |
| C[C@H](O)CC1OC(=O)N(c2cc(-c3cnc(N)nc3C(F)(F)F)nc(N3CCOCC3)n2)[C@H]1C (single isomer, unassigned) [Example 25] | 0 | – | 5 | < 3 |
| Nc1ncc(-c2cc(N3C(=O)O[C@@H]4[C@@H](O)CC[C@@H]43)nc(N3CCOCC3)n2)c(C(F)(F)F)n1 (racemic) [Example 22, (3aR*,6R*,6aR*)-3-(2′-Amino-2-morpholino-4′-(trifluoromethyl)-[4,5′-bipyrimidin]-6-yl)-6-hydroxyhexahydro-2H-cyclopenta[d]oxazol-2-one] | 0 | – | 6 | – |
| Nc1ncc(-c2cc(N3C[C@H](CO)OC3=O)nc(N3CCOCC3)n2)c(C(F)(F)F)n1 [Example 20, (R)-3-(2′-Amino-2-morpholin-4-yl-4′-trifluoromethyl-[4,5′]bipyrimidinyl-6-yl)-5-hydroxymethyl-oxazolidin-2-one] | 1-2 | 0.024 | – | – |

Now from value to molecule:

| Score (condensed DNA, G2/M arrest; off-target tubulin binding) (A2058 cells) | PI3Ka/ IC50 (human PI3Kα; [1]) [umol I-1] | IC50 (human PI3Kα; [2]) [nM] | IC50 (human PI3Kα; a different, separate measurement, read-out: PI3Ka IC50, different, separate measurement (footnote)) [nM] | SMILES |
| --- | --- | --- | --- | --- |
| 0 | 0.006 | – | – | C[C@H]1[C@@H](CO)OC(=O)N1c1cc(-c2cnc(N)nc2C(F)(F)F)nc(N2CCOCC2)n1 [Example 19, (4S,5S)-3-(2′-Amino-2-morpholin-4-yl-4′-trifluoromethyl-[4,5′]bipyrimidinyl-6-yl)-5-hydroxymethyl-4-methyl-oxazolidin-2-one] |
| 0 | 0.026 | – | – | C[C@H]1[C@H](CO)OC(=O)N1c1cc(-c2cnc(N)nc2C(F)(F)F)nc(N2CCOCC2)n1 [Example 15, (4S,5R)-3-(2′-Amino-2-morpholin-4-yl-4′-trifluoromethyl-[4,5′]bipyrimidinyl-6-yl)-5-hydroxymethyl-4-methyl-oxazolidin-2-one] |
| 0 | 0.011 | – | – | COC[C@H]1COC(=O)N1c1cc(-c2cnc(N)nc2C(F)(F)F)nc(N2CCOCC2)n1 [Example 5, (S)-3-(2′-Amino-2-morpholin-4-yl-4′-trifluoromethyl-[4,5′]bipyrimidinyl-6-yl)-4-methoxymethyl-oxazolidin-2-one] |
| 0 | 0.203 | – | – | C[C@H]1COCCN1c1nc(-c2cnc(N)nc2C(F)(F)F)cc(N2C(=O)OC[C@@H]2C)n1 [Example 13, (S)-3-[2′-Amino-2-((S)-3-methyl-morpholin-4-yl)-4′-trifluoromethyl-[4,5′]bipyrimidinyl-6-yl]-4-methyl-oxazolidin-2-one] |
| 0 | 0.008 | – | – | C[C@H]1OC(=O)N(c2cc(-c3cnc(N)nc3C(F)(F)F)nc(N3CCOC[C@@H]3C)n2)[C@H]1CO [Example 10, (4S,5R)-3-[2′-Amino-2-((S)-3-methyl-morpholin-4-yl)-4′-trifluoromethyl-[4,5′]bipyrimidinyl-6-yl]-4-hydroxymethyl-5-methyl-oxazolidin-2-one] |
